Drawing on US20250368649A1, “TETRAHYDROPYRIDOPYRIMIDINE PAN-KRAS INHIBITORS” (Mirati Therapeutics, Inc., priority 2022, published 2025), this text covers IC50 for 7 molecules.

The subject of one assay is H460 cells. The assay is described as follows: Inhibition of KRas-mediated phosphorylation of ERK (Cisbio HTRF pERK), H460 cells. Format: cell-based. The following applies: Homo sapiens, NCI-H460, 3 h, 3 hr compound incubation. Background: Time-resolved FRET reads energy transfer from a long-lived donor to a nearby acceptor.
Another assay deals with H358 cells. The assay is described as follows: Inhibition of KRas-mediated phosphorylation of ERK (Cisbio HTRF pERK), H358 cells. The assay is classed as cell-based. The following applies: Homo sapiens, NCI-H358, 3 h, 3 hr compound incubation.
Another assay concerns ASPC1 cells. The assay is described as follows: Inhibition of KRas-mediated phosphorylation of ERK (Cisbio HTRF pERK), ASPC1 cells. The assay is classed as cell-based. As to conditions: Homo sapiens, ASPC1, 3 h, AsPC-1 cells, 3 hr compound incubation.
The next assay has as its target KRas G12V (Homo sapiens, UniProt P01116, G12V). Briefly: biochemical. As to conditions: Binding to KRas (IC50 nM) G12V, TR-FRET displacement, KRas G12V.
For another assay, the target named is KRas G12S (Homo sapiens, UniProt P01116, G12S). The assay is classed as binding. The following applies: TR-FRET displacement, read-out: Binding to KRas (IC50 nM) G12S.
The subject of another assay is PSN1 cells. The assay is described as follows: Inhibition of KRas-mediated phosphorylation of ERK (Cisbio HTRF pERK), PSN1 cells. The assay is classed as cell-based. As to conditions: Homo sapiens, PSN1, 3 h. The essentials: (§1)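 Growth medium is RPMI with 10% FBS, and each well receives 6,000 cells on the first day of the protocol.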
The target in the next assay is KRas WT (Homo sapiens, UniProt P01116). Briefly: KRas binding assay (TR-FRET displacement), KRas WT. As to conditions: TR-FRET displacement.
The next assay has as its system A549 cells. Briefly: Inhibition of KRas-mediated phosphorylation of ERK (Cisbio HTRF pERK), A549 cells. Format: cell-based. As to conditions: Homo sapiens, A549, 3 h, 3 hr compound incubation.
The subject of another assay is MKN1 cells. Briefly: Inhibition of KRas-mediated phosphorylation of ERK (Cisbio HTRF pERK), MKN1 cells. The assay is classed as cell-based. The following applies: Homo sapiens. In short, it runs like this:
as §1

A further assay deals with H727 cells. The assay is described as follows: Inhibition of KRas-mediated phosphorylation of ERK (Cisbio HTRF pERK), H727 cells. As to conditions: Homo sapiens, NCI-H727, 3 h, 3 hr compound incubation. The assay is classed as cell-based.
In a further assay the target is KRas G12C (Homo sapiens, UniProt P01116, G12C). The assay is classed as binding. As to conditions: TR-FRET displacement, read-out: Binding to KRas (IC50 nM) G12C.
The test system of a further assay is HCT116 cells. The assay is described as follows: Inhibition of KRas-mediated phosphorylation of ERK (Cisbio HTRF pERK), HCT116 cells. As to conditions: Homo sapiens, HCT-116, 3 h, 3 hr compound incubation. Format: cell-based.
For the next assay, the target named is KRas G12D (Homo sapiens, UniProt P01116, G12D). The assay is described as follows: biochemical. The following applies: Binding to KRas (IC50 nM) G12D, TR-FRET displacement, KRas G12D.
Another assay concerns the target KRas G12R (Homo sapiens, UniProt P01116, G12R). The assay is described as follows: biochemical. The following applies: Binding to KRas (IC50 nM) G12R, TR-FRET displacement, KRas G12R.
Where [1] appears, read: MKN-1, 3 hr compound incubation.
The mark [2] stands for this setting: 3 hour compound incubation, Cisbio pERK HTRF.
[3] abbreviates: MKN-1, 3 hour compound incubation, Cisbio pERK HTRF.

Molecules are shown by their SMILES.

Chain of KRas G12D (P01116 1-169 isoform P01116-2 G12D): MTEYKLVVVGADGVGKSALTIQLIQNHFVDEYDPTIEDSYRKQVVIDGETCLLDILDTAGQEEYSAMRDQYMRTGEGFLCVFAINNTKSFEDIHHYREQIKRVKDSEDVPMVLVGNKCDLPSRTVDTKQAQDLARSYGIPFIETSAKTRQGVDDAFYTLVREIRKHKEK
Chain of KRas G12V (P01116 1-169 isoform P01116-2 G12V): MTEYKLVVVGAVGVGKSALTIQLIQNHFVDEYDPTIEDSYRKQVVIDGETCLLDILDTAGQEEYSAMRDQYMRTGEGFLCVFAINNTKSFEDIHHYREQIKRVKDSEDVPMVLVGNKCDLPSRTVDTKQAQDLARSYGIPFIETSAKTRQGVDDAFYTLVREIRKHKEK
Chain of KRas G12S (P01116 1-169 isoform P01116-2 G12S): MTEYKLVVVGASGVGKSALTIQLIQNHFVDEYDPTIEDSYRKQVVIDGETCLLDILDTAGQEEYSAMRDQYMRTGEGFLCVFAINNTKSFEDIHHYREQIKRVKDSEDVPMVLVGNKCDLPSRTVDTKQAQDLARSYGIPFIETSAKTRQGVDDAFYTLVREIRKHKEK
Chain of KRas G12C (P01116 1-169 isoform P01116-2 G12C): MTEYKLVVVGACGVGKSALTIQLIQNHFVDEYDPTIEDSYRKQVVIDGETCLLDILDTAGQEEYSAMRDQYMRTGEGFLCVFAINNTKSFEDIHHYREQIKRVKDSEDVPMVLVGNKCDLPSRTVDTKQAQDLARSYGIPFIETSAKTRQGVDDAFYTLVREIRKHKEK
Chain of KRas WT (P01116 1-169 isoform P01116-2): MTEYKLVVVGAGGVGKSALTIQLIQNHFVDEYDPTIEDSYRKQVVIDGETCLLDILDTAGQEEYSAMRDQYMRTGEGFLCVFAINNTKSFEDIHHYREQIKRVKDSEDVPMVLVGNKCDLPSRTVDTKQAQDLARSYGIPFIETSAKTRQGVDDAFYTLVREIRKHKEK
Chain of KRas G12R (P01116 1-169 isoform P01116-2 G12R): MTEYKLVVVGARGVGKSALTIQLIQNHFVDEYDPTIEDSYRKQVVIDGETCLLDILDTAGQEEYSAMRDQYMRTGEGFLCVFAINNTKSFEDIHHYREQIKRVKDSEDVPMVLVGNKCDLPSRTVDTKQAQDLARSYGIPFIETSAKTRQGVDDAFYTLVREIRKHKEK

As for `C[C@@H]1C[C@@H]1c1c(Cl)cc(O)cc1N1CCc2c(nc(OC[C@@]34CCCN3C[C@H](F)C4)nc2N2CCC[C@]3(C2)NC(=O)NC3=O)C1` (stereo in doubt) [Example 653, (R)-7-(7-(3-chloro-5-hydroxy-2-(cis-2-methylcyclopropyl)phenyl)-2-(((2R,7aS)-2-fluorotetrahydro-1H-pyrrolizin-7a(5H)-yl)methoxy)-5,6,7,8-tetrahydropyrido[3,4-d]pyrimidin-4-yl)-1,3,7-triazaspiro[4.5]decane-2,4-dione], the IC50 (commonly the concentration at which inhibition is half-maximal) with H460 cells was 12 nM; with H358 cells, 6 nM; with ASPC1 cells, 70 nM; at KRas G12V it was below 2 nM; at KRas G12S it was below 2 nM; in the assay on PSN1 cells (3 hr compound incubation) it was 131 nM. Also, the IC50 at KRas WT is below 2 nM; with A549 cells, 17 nM; in the assay with MKN1 cells (setting [1]), 2.4 nM; in the assay on H727 cells it was 60 nM; at KRas G12C, below 2 nM; in the assay on HCT116 cells, 28 nM. The molecule also showed a 50% inhibitory concentration (IC50) on KRas G12D below 2 nM.
As to `C[C@@H]1C[C@@H]1c1c(Cl)cc(O)cc1N1CCc2c(nc(OC[C@@]34CCCN3C[C@H](F)C4)nc2N2CCCn3nc(C(=O)N(C)C)cc3C2)C1` (stereo in doubt) [Example 656, 5-(7-(3-chloro-5-hydroxy-2-(cis-2-methylcyclopropyl)phenyl)-2-(((2R,7aS)-2-fluorotetrahydro-1H-pyrrolizin-7a(5H)-yl)methoxy)-5,6,7,8-tetrahydropyrido[3,4-d]pyrimidin-4-yl)-N,N-dimethyl-5,6,7,8-tetrahydro-4H-pyrazolo[1,5-a][1,4]diazepine-2-carboxamide], the IC50 in the assay on H460 cells was 307 nM; with H358 cells, 54 nM; with ASPC1 cells, 82 nM; at KRas G12V, below 2 nM; on KRas G12S, 2 nM; in the assay on PSN1 cells (3 hr compound incubation), above 10000 nM. For the same molecule, the IC50 was 5 nM at KRas WT; 294 nM in the assay on A549 cells; 4.5 nM in the assay on MKN1 cells (setting [1]); 100 nM in the assay with H727 cells; 2 nM on KRas G12C; 1220 nM with HCT116 cells. On KRas G12D, this molecule came in with an IC50 below 2 nM.
`CCc1c(F)ccc2cc(O)cc(N3CCc4c(nc(OCC56CCCN5C/C(=C\F)C6)nc4N4CCC[C@@](C)(O)C4)C3)c12` (stereo partly drawn) [Example 574, (3R)-1-(7-(8-ethyl-7-fluoro-3-hydroxynaphthalen-1-yl)-2-(((Z)-2-(fluoromethylene)tetrahydro-1H-pyrrolizin-7a(5H)-yl)methoxy)-5,6,7,8-tetrahydropyrido[3,4-d]pyrimidin-4-yl)-3-methylpiperidin-3-ol]: the IC50 in the assay on H460 cells (Cisbio pERK HTRF) was 12 nM; with H358 cells (Cisbio pERK HTRF), 5 nM; in the assay with ASPC1 cells (Cisbio pERK HTRF), 13 nM; on KRas G12V, below 2 nM; on KRas G12S it was below 2 nM; with PSN1 cells (setting [2]), 442 nM. Also, the half-inhibitory concentration (IC50) was below 2 nM at KRas WT; 16 nM with A549 cells (Cisbio pERK HTRF); 0.4 nM with MKN1 cells (setting [3]); 25 nM in the assay on H727 cells (Cisbio pERK HTRF); below 2 nM on KRas G12C; 18 nM in the assay with HCT116 cells (Cisbio pERK HTRF). For the same molecule, on KRas G12D, the IC50 was below 2 nM.
In the case of `CCc1c(F)ccc2cc(O)cc(N3CCc4c(nc(OCC56CCCN5C/C(=C\F)C6)nc4N4C[C@@H]5C[C@H](C4)[C@H](O)C5)C3)c12` (stereo partly drawn) [Example 576, (1R,5R,6R)-3-(7-(8-ethyl-7-fluoro-3-hydroxynaphthalen-1-yl)-2-(((Z)-2-(fluoromethylene)tetrahydro-1H-pyrrolizin-7a(5H)-yl)methoxy)-5,6,7,8-tetrahydropyrido[3,4-d]pyrimidin-4-yl)-3-azabicyclo[3.2.1]octan-6-ol], the IC50 was 57 nM with H460 cells (Cisbio pERK HTRF); 49 nM with H358 cells (Cisbio pERK HTRF); 88 nM with ASPC1 cells (Cisbio pERK HTRF); below 2 nM at KRas G12V; below 2 nM at KRas G12S; 2760 nM in the assay on PSN1 cells (setting [2]). The IC50 on KRas WT turned out to be 3 nM; in the assay with A549 cells (Cisbio pERK HTRF), 61 nM; in the assay on MKN1 cells (setting [3]), 5.8 nM; with H727 cells (Cisbio pERK HTRF), 57 nM; at KRas G12C, 3 nM; in the assay on HCT116 cells (Cisbio pERK HTRF) it was 137 nM. This molecule displayed an IC50 on KRas G12D of 4 nM.
For `CCc1c(F)ccc2cc(O)cc(N3CCc4c(nc(OCC56CCCN5C/C(=C\F)C6)nc4N4CCC[C@]5(C4)NC(=O)NC5=O)C3)c12` (stereo partly drawn) [Example 577, (5R)-7-(7-(8-ethyl-7-fluoro-3-hydroxynaphthalen-1-yl)-2-(((Z)-2-(fluoromethylene)tetrahydro-1H-pyrrolizin-7a(5H)-yl)methoxy)-5,6,7,8-tetrahydropyrido[3,4-d]pyrimidin-4-yl)-1,3,7-triazaspiro[4.5]decane-2,4-dione], the IC50 in the assay on H460 cells (Cisbio pERK HTRF) is 1 nM; in the assay with H358 cells (Cisbio pERK HTRF), 1 nM; in the assay with ASPC1 cells (Cisbio pERK HTRF), 2 nM; at KRas G12V it was below 2 nM; at KRas G12S, below 2 nM; in the assay on PSN1 cells (setting [2]) it was 7 nM. Also, the IC50 on KRas WT is below 2 nM; with A549 cells (Cisbio pERK HTRF) it was 1 nM; in the assay on MKN1 cells (setting [3]), 0.1 nM; in the assay on H727 cells (Cisbio pERK HTRF), 6 nM; on KRas G12C it was below 2 nM; in the assay with HCT116 cells (Cisbio pERK HTRF) it was 2 nM. For the same molecule, the IC50 at KRas G12D is below 2 nM.
For `CCc1c(F)ccc2cc(O)cc(N3CCc4c(nc(OC[C@@]56CCCN5C[C@H](F)C6)nc4N4CCCN(c5nccs5)CC4)C3)c12` [Example 648, 5-ethyl-6-fluoro-4-(2-(((2R,7aS)-2-fluorotetrahydro-1H-pyrrolizin-7a(5H)-yl)methoxy)-4-(4-(thiazol-2-yl)-1,4-diazepan-1-yl)-5,8-dihydropyrido[3,4-d]pyrimidin-7(6H)-yl)naphthalen-2-ol], the IC50 in the assay with H460 cells is 184 nM; at KRas G12R, 4 nM; in the assay with H358 cells it was 710 nM; in the assay with ASPC1 cells, 1940 nM; at KRas G12V it was 7 nM; with PSN1 cells (3 hr compound incubation), above 10000 nM. The IC50 with A549 cells came to 1130 nM; in the assay on MKN1 cells (setting [1]) it was 101 nM; in the assay on H727 cells, 2330 nM; in the assay on HCT116 cells, 570 nM; on KRas G12D, 17 nM.
As to `CCc1c(F)ccc2cc(O)cc(N3CCc4c(nc(OC[C@@]56CCCN5C[C@H](F)C6)nc4N4C[C@H]5CC[C@@H](C4)[C@@H]5C#N)C3)c12` [Example 651, (1R,5S,8S)-3-(7-(8-ethyl-7-fluoro-3-hydroxynaphthalen-1-yl)-2-(((2R,7aS)-2-fluorotetrahydro-1H-pyrrolizin-7a(5H)-yl)methoxy)-5,6,7,8-tetrahydropyrido[3,4-d]pyrimidin-4-yl)-3-azabicyclo[3.2.1]octane-8-carbonitrile], the IC50 in the assay with H460 cells is 165 nM; on KRas G12R, below 2 nM; in the assay on H358 cells it was 45 nM; in the assay on ASPC1 cells it was 572 nM; on KRas G12V, below 2 nM; in the assay on PSN1 cells (3 hr compound incubation), above 10000 nM. Moreover, the IC50 in the assay on A549 cells was determined as 94 nM; in the assay with MKN1 cells (setting [1]) it was 23 nM; with H727 cells, 84 nM; in the assay with HCT116 cells it was 516 nM; on KRas G12D, 18 nM.
